Experimental data from patent EP0160578A1, “1,8-Naphthyridine derivatives” (DAIICHI SEIYAKU CO., LTD., priority 1984, dated 1985).
In brackets after ≈: the same amount, converted by molar mass.

What was measured:
Assay in all cases: Antibacterial activity, dilution method in Muller-Hinton Bouillon (MIC)
Type in all cases: cell-based
[1] = system: E. coli, NIHJ; details: Escherichia coli, 10^6/ml bacteria, 37°C, 18 hours, read-out: Minimal Inhibitory Concentration (MIC)
Procedure: (§1) The antibacterial activity of the compounds of the present invention was determined by the standard method of the Japan Society of Chemotherapy: according to the dilution method in Muller-Hinton Bouillon, 10^6/ml of bacteria were seeded and incubated at 37°C for 18 hours.

[2] = system: Pr. mirabilis, 1287; details: Proteus mirabilis, 10^6/ml bacteria, 37°C, 18 hours, read-out: Minimal Inhibitory Concentration (MIC)
Procedure: as §1

[3] = system: Pr. vulgaris, 3167; details: Proteus vulgaris, 10^6/ml bacteria, 37°C, 18 hours, read-out: Minimal Inhibitory Concentration (MIC)
Procedure: as §1

[4] = system: Ps. aeruginosa, 2063; details: Pseudomonas aeruginosa, 10^6/ml bacteria, 37°C, 18 hours, read-out: Minimal Inhibitory Concentration (MIC)
Procedure: as §1

[5] = system: Ps. aeruginosa, 2128; details: Pseudomonas aeruginosa, 10^6/ml bacteria, 37°C, 18 hours, read-out: Minimal Inhibitory Concentration (MIC)
Procedure: as §1

[6] = system: Ps. aeruginosa, 2131; details: Pseudomonas aeruginosa, 10^6/ml bacteria, 37°C, 18 hours, read-out: Minimal Inhibitory Concentration (MIC)
Procedure: as §1

[7] = system: Ps. cepacia, IID1340; details: Burkholderia cepacia, 10^6/ml bacteria, 37°C, 18 hours, read-out: Minimal Inhibitory Concentration (MIC)
Procedure: as §1

[8] = system: Ps. maltophilia, IID1275; details: Stenotrophomonas maltophilia, 10^6/ml bacteria, 37°C, 18 hours, read-out: Minimal Inhibitory Concentration (MIC)
Procedure: as §1

[9] = system: S. aureus, Smith; details: Staphylococcus aureus, 10^6/ml bacteria, 37°C, 18 hours, read-out: Minimal Inhibitory Concentration (MIC)
Procedure: as §1

[10] = system: S. epidermis, 56556; details: 10^6/ml bacteria, 37°C, 18 hours, read-out: Minimal Inhibitory Concentration (MIC)
Procedure: as §1

[11] = system: Ser. marcescens, 13001; details: Serratia marcescens, 10^6/ml bacteria, 37°C, 18 hours, read-out: Minimal Inhibitory Concentration (MIC)
Procedure: as §1

[12] = system: Sh. flexneri, 2a5503; details: Shigella flexneri, 10^6/ml bacteria, 37°C, 18 hours, read-out: Minimal Inhibitory Concentration (MIC)
Procedure: as §1

[13] = system: Str. faecalis, ATCC19433; details: Enterococcus faecalis, 10^6/ml bacteria, 37°C, 18 hours, read-out: Minimal Inhibitory Concentration (MIC)
Procedure: as §1

[14] = system: Str. pyogenes, G-36; details: Streptococcus pyogenes, G36, 10^6/ml bacteria, 37°C, 18 hours, read-out: Minimal Inhibitory Concentration (MIC)
Procedure: as §1

SMILES	MIC [1]	MIC [2]	MIC [3]	MIC [4]	MIC [5]	MIC [6]	MIC [7]	MIC [8]	MIC [9]	MIC [10]	MIC [11]	MIC [12]	MIC [13]	MIC [14]
CN1CCCN(c2nc3c(cc2F)c(=O)c(C(=O)O)cn3C2CC2)CC1 [No. 6, 1-cyclopropyl-6-fluoro-7-(N-methyl-1-homopiperazinyl)-1,4-dihydro-4-oxo-1,8-naphthyridine-3-carboxylic acid]	≤ 0.05 µg/mL	0.2 µg/mL (≈ 0.555 µM)	0.1 µg/mL (≈ 0.277 µM)	0.78 µg/mL (≈ 2.16 µM)	0.39 µg/mL (≈ 1.08 µM)	0.78 µg/mL (≈ 2.16 µM)	0.78 µg/mL (≈ 2.16 µM)	0.39 µg/mL (≈ 1.08 µM)	0.39 µg/mL (≈ 1.08 µM)	0.39 µg/mL (≈ 1.08 µM)	0.2 µg/mL (≈ 0.555 µM)	0.1 µg/mL (≈ 0.277 µM)	6.25 µg/mL (≈ 17.3 µM)	6.25 µg/mL (≈ 17.3 µM)
CN1CCN(c2nc3c(cc2F)c(=O)c(C(=O)O)cn3C2CC2)CC1 [No. 4, 1-cyclopropyl-6-fluoro-7-(4-methyl-1-piperazinyl)-1,4-dihydro-4-oxo-1,8-naphthyridine-3-carboxylic acid]	≤ 0.05 µg/mL	≤ 0.05 µg/mL	≤ 0.05 µg/mL	0.39 µg/mL (≈ 1.13 µM)	0.2 µg/mL (≈ 0.577 µM)	0.39 µg/mL (≈ 1.13 µM)	1.56 µg/mL (≈ 4.5 µM)	0.39 µg/mL (≈ 1.13 µM)	0.2 µg/mL (≈ 0.577 µM)	0.39 µg/mL (≈ 1.13 µM)	≤ 0.05 µg/mL	≤ 0.05 µg/mL	3.13 µg/mL (≈ 9.04 µM)	6.25 µg/mL (≈ 18 µM)
CC1CN(c2nc3c(cc2F)c(=O)c(C(=O)O)cn3C2CC2)CCN1 (stereo not shown) [No. 7, 1-cyclopropyl-6-fluoro-7-(3-methyl-1-piperazinyl)-1,4-dihydro-4-oxo-1,8--naphthyridine-3-carboxylic acid]	≤ 0.05 µg/mL	0.1 µg/mL (≈ 0.289 µM)	≤ 0.05 µg/mL	0.2 µg/mL (≈ 0.577 µM)	0.2 µg/mL (≈ 0.577 µM)	0.1 µg/mL (≈ 0.289 µM)	0.39 µg/mL (≈ 1.13 µM)	0.39 µg/mL (≈ 1.13 µM)	0.39 µg/mL (≈ 1.13 µM)	0.78 µg/mL (≈ 2.25 µM)	≤ 0.05 µg/mL	≤ 0.05 µg/mL	3.13 µg/mL (≈ 9.04 µM)	1.56 µg/mL (≈ 4.5 µM)
CCn1cc(C(=O)O)c(=O)c2cc(F)c(N3CCNCC3)nc21 [Control Compound, 1-ethyl-6-fluoro-7-(1-piperazinyl)-1,4-dihydro-4-oxo-1,8-naphthyridine-3-carboxylic acid, reference compound]	0.2 µg/mL (≈ 0.624 µM)	0.2 µg/mL (≈ 0.624 µM)	0.2 µg/mL (≈ 0.624 µM)	0.78 µg/mL (≈ 2.44 µM)	0.78 µg/mL (≈ 2.44 µM)	0.2 µg/mL (≈ 0.624 µM)	50 µg/mL (≈ 156 µM)	0.78 µg/mL (≈ 2.44 µM)	0.78 µg/mL (≈ 2.44 µM)	0.78 µg/mL (≈ 2.44 µM)	0.2 µg/mL (≈ 0.624 µM)	0.2 µg/mL (≈ 0.624 µM)	6.25 µg/mL (≈ 19.5 µM)	25 µg/mL (≈ 78 µM)
O=C(O)c1cn(C2CC2)c2nc(N3CCNCC3)c(F)cc2c1=O [No. 1, 1-cyclopropyl-6-fluoro-7-(1-piperazinyl)-1,4-dihydro-4-oxo-1,8-naphthyridine-3-carboxylic acid]	≤ 0.05 µg/mL	≤ 0.05 µg/mL	≤ 0.05 µg/mL	0.1 µg/mL (≈ 0.301 µM)	0.1 µg/mL (≈ 0.301 µM)	0.1 µg/mL (≈ 0.301 µM)	3.13 µg/mL (≈ 9.42 µM)	0.78 µg/mL (≈ 2.35 µM)	0.39 µg/mL (≈ 1.17 µM)	0.39 µg/mL (≈ 1.17 µM)	≤ 0.05 µg/mL	≤ 0.05 µg/mL	1.56 µg/mL (≈ 4.69 µM)	6.25 µg/mL (≈ 18.8 µM)
O=C(O)c1cn(C2CC2)c2nc(N3CCC(O)C3)c(F)cc2c1=O (stereo not drawn) [No. 3, l-cyclopropyl-6-fluoro-7-(3-hydroxy-l-pyrrolidinyl)-1,4-dihydro-4-oxo-1,8-naphthyridine-3-carboxylic acid]	≤ 0.05 µg/mL	≤ 0.05 µg/mL	≤ 0.05 µg/mL	0.39 µg/mL (≈ 1.17 µM)	0.39 µg/mL (≈ 1.17 µM)	0.78 µg/mL (≈ 2.34 µM)	0.39 µg/mL (≈ 1.17 µM)	0.39 µg/mL (≈ 1.17 µM)	≤ 0.05 µg/mL	0.1 µg/mL (≈ 0.3 µM)	0.1 µg/mL (≈ 0.3 µM)	≤ 0.05 µg/mL	0.39 µg/mL (≈ 1.17 µM)	1.56 µg/mL (≈ 4.68 µM)
O=C(O)c1cn(C2CC2)c2nc(N3CCCNCC3)c(F)cc2c1=O [No. 5, 1-cyclopropyl-6-fluoro-7-(1-homopiperazinyl)-1,4-dihydro-4-oxo-1,8-naphthyridine-3-carboxylic acid]	≤ 0.05 µg/mL	0.1 µg/mL (≈ 0.289 µM)	≤ 0.05 µg/mL	0.2 µg/mL (≈ 0.577 µM)	0.1 µg/mL (≈ 0.289 µM)	0.2 µg/mL (≈ 0.577 µM)	0.78 µg/mL (≈ 2.25 µM)	1.56 µg/mL (≈ 4.5 µM)	0.39 µg/mL (≈ 1.13 µM)	0.39 µg/mL (≈ 1.13 µM)	0.1 µg/mL (≈ 0.289 µM)	≤ 0.05 µg/mL	6.25 µg/mL (≈ 18 µM)	12.5 µg/mL (≈ 36.1 µM)
NC1CCN(c2nc3c(cc2F)c(=O)c(C(=O)O)cn3C2CC2)C1 (stereo not shown) [No. 2, 1-cyclopropyl-6-fluoro-7-(3-amino-1-pyrrolidinyl)-1,4-dihydro-4-oxo-1,8--naphthyridine-3-carboxylic acid]	≤ 0.05 µg/mL	≤ 0.05 µg/mL	≤ 0.05 µg/mL	≤ 0.05 µg/mL	≤ 0.05 µg/mL	0.1 µg/mL (≈ 0.301 µM)	0.39 µg/mL (≈ 1.17 µM)	0.39 µg/mL (≈ 1.17 µM)	0.1 µg/mL (≈ 0.301 µM)	0.1 µg/mL (≈ 0.301 µM)	≤ 0.05 µg/mL	≤ 0.05 µg/mL	0.39 µg/mL (≈ 1.17 µM)	0.78 µg/mL (≈ 2.35 µM)
